Source: US20130316349A1, “N-METHYLPURINE DNA GLYCOSYLASE AND POLYMERASE BETA AS BIOMARKERS FOR ALKYLATOR CHEMOTHERAPY POTENTIATION” (University of Pittsburgh - Of the Commonwealth System of …, priority 2010, published 2013)
Entries after “also recorded” stand apart in the source; their conditions may differ. Each block holds one molecule with its values, some of them ahead of it.

Tests used:
T98G cells = test: Long-term cell survival assay (10 days); format: cell-based; conditions: 50 and 100 μM TMZ
Method: (§1) Results were calculated from the average of three or four separate experiments and are reported as the percentage of treated cells relative to the cells without treatment (% control).

T98G/MPG cells = test: Long-term cell survival assay (10 days); conditions: for ABT-888-induced potentiation of TMZ: T98G/MPG vs T98G, 50 and 100 μM TMZ, p<0.05 and p<0.01
Method: as §1

T98G/MPG/Polβ KD cells [1] = test: Long-term cell survival assay (10 days)
Method: as §1

LN428 cells = test: Short-term cell survival assay (48 hours MTS assay); format: cell-based; conditions: MX 60 mM 30 min, then TMZ with MX 30 mM 48 hours
Method: as §1

[2] = tested on: LN428/MPG cells (MPG over-expressing); test: as above; format: cell-based; conditions: MX 60 mM 30 min, then TMZ with MX 30 mM 48 hours; LN428/MPG vs LN428
Method: as §1

[3] = tested on: LN428 cells over-expressing mutant MPG (N169D); test: as above; format: cell-based; conditions: glycosylase dead mutant MPG (N169D) over-expressed in LN428
Method: as §1

[4] = tested on: LN428/MPG/Flag-Polβ-WT cells; test: as above; format: cell-based; conditions: WT Polβ over-expressed in LN428/MPG
Method: as §1

[5] = tested on: LN428/MPG/Flag-Pol β-K72A cells; test: as above; format: cell-based; conditions: 5′ dRP lyase null mutant Polβ (K72A) over-expressed in LN428/MPG
Method: as §1

[6] = tested on: LN428/MPG/Flag-APE1 cells; test: as above; format: cell-based; conditions: APE1 over-expressed in LN428/MPG
Method: as §1

LN428/MGMT cells = test: Long-term cell survival assay (10 days); format: cell-based; conditions: pre- (4 μM) and co-treatment with PJ34 (2 μM)
Method: as §1

LN428/MGMT/MPG cells = test: Long-term cell survival assay (10 days); format: cell-based; conditions: pre- (4 μM) and co-treatment with PJ34 (2 μM); LN428/MGMT/MPG vs LN428/MGMT
Method: as §1

PARP = conditions: PJ34 at 2 μM; cited from earlier work
T98G/MPG/Polβ KD cells [7] = tested on: T98G/MPG/Polβ KD cells
Method: as §1

PARG mRNA = test: qRT-PCR of PARG mRNA in LN428/MPG cells stably expressing shRNA; format: cell-based; conditions: LN428/MPG cells stably expressing each shRNA
Method: Human WT MPG, mutant MPG (N169D), WT Flag Polβ and Flag Pol β (K72A) expressing cell lines were developed by transfecting cells with corresponding plasmids using FuGene™ 6 Transfection Reagent (Roche, Indianapolis, Ind.) according to the manufacturer's protocol. Transfected cells were cultured in G418 and/or Puromycin for 2 weeks and individual clones stably expressing human MPG or Pol β were selected. Lentiviral particles were generated by co-transfection of 4 plasmids, pLKO.1-puro-TurboGFP (control, expresses GFP) or pCMV-tGFP-PARG (PARG shRNA, co-expresses PARG shRNA and GFP) together with pMD2.g(VSVG), pVSV-REV and PMDLg/pRRE, into 293-FT cells (Zufferey et al., J. Virol., 72:9873-9880, 1998; Zufferey et al., Nat. Biotechnol., 15:871-875, 1997) using FuGene™ 6 Transfection Reagent (Roche, Indianapolis, Ind.), as described previously (Tang et al., Mol. Cancer Res. 8(1):67-79, 2010). […] Cells expressing copGFP only or both copGFP and PARG specific shRNA were isolated by fluorescence activated cell sorting (FACS).
Expression of MPG, Polβ and PARP1 in the cell lines was measured by quantitative RT-PCR using an Applied Biosystems StepOnePlus™ system as described previously (Tang et al., Mol Cancer Res 8:67-79, 2010). […] Each sample was analyzed in triplicate and the results are an average of all three analyses. […]

[8] = tested on: degradation of PAR (PARG); test: Immunoblot for PAR after TMZ exposure in LN428/MPG cells; format: cell-based; conditions: 1.5 mM TMZ
Method: Twenty microgram of protein was loaded on a precast 4-20% NuPAGE™ Tris-Glycine gel (Invitrogen, Carlsbad, Calif.). For whole cell extracts used in probing Poly(ADP-ribose) (PAR), 3×10^6 cells were seeded into a 100 mm cell culture dish 24 hours before drug treatment. Cells were then treated with TMZ (1.5 mM) or DMSO (control) for different periods of time. After treatment, cells were washed twice with cold PBS, collected and lysed in 400 μL of 2×Laemmli buffer (2% SDS, 20% Glycerol, 62.5 mM Tris-HCl pH6.8, 0.01% Bromophenol Blue). Samples were boiled for 8 minutes and extracts from approximately 1.5×10^5 cells were loaded each lane on a 4-12% pre-cast NuPAGE™ Tris-Glycine gel (Invitrogen, Carlsbad, Calif.) for immunoblot analysis. The following primary antibodies were used in immunoblot assays: anti-human MPG (Mab; clone 506-3D) (Trivedi et al., Mol. Pharmacol, 2008); anti-Polβ (Mab clone 61; Thermo Fisher Scientific); anti-APE1 (EMD Biosciences); anti-PCNA (Santa Cruz); anti-poly(ADP-ribose) (PAR) (Clone 10H); anti-MGMT (Novus, Littleton, Colo.).

Molecule: C[C@]1(c2nc3c(C(N)=O)cccc3[nH]2)CCCN1 [ABT-888]
ABT-888-induced potentiation of TMZ (T98G cells): sensitized T98G cells to TMZ
cells killed by ABT-888 treatment alone (T98G/MPG cells; T98G/MPG cells, no TMZ): ~30%
ABT-888-induced potentiation of TMZ (T98G/MPG cells): significantly increased the potentiation induced by ABT-888
ABT-888-induced potentiation of TMZ (T98G/MPG cells; listed as A8T-888): significantly increased A8T-888-induced potentiation of TMZ
cells killed by ABT-888 treatment alone (T98G/MPG/Polβ KD cells [1]; T98G/MPG/Polβ KD cells, no TMZ): about 70%
ABT-888-induced potentiation of TMZ (cytotoxicity of TMZ and ABT-888 vs TMZ alone) (T98G/MPG/Polβ KD cells [1]; T98G/MPG/Polβ KD, 25 and 50 μM TMZ, p<0.01): significantly increased ABT-888-induced potentiation of TMZ; also recorded: significantly increased cytotoxicity compared to TMZ treatment alone

Molecule: CON [MX, Methoxyamine]
MX-induced potentiation of TMZ (LN428 cells): sensitized both cell lines to TMZ
MX-induced potentiation of TMZ [2]: dramatically increases MX-induced potentiation of TMZ; also recorded: much higher in the MPG over-expressing cells
MX-induced potentiation of TMZ [3]: did not sensitize LN428 cells to a combined treatment of MX and TMZ
MX-induced potentiation of TMZ [4]: dramatically reduced the potentiation induced by MX
MX-induced potentiation of TMZ [5]: did not affect MX-induced potentiation of TMZ
MX-induced potentiation of TMZ [6]: did not alter the potentiation of TMZ induced by MX

Molecule: CN(C)CC(=O)Nc1ccc2[nH]c(=O)c3ccccc3c2c1 [PJ34]
PJ34-induced potentiation of TMZ (LN428/MGMT cells): sensitized cells to TMZ
PJ34-induced potentiation of TMZ (LN428/MGMT/MPG cells): substantially increased PJ34-induced potentiation of TMZ; also recorded: much higher in the MPG over expressing cells
level of PARP activation following exposure to TMZ (PARP): significantly reduced the level of PARP activation

IC50 (T98G/MPG/Polβ KD cells [7]): < 25 µM
Molecule: Cn1nnc2c(C(N)=O)ncn2c1=O [TMZ, 3-methyl-2-oxo-1,3,4,5,8-pentazabicyclo[4.3.0]nona-4,6,8-triene-7-carbooxamide]

Molecule: PARG shRNA #2: MISSION TRC shRNA targeting PARG, SEQ ID NO: 10 (CCGGCGATTGCATGTCACTTACGAACTCGAGTTCGTAAGTGACATGCAATCGTTTTTG)
level of PARG mRNA (rank among five shRNA constructs) (PARG mRNA): second lowest
degradation of PAR following exposure to TMZ [8]: greatly decreased the degradation of PAR

Molecule: PARG shRNA #4: MISSION TRC shRNA targeting PARG, SEQ ID NO: 12; used for PARG KD (CCGGGCTGAGCGAGATGTGGTTTATCTCGAGATAAACCACATCTCGCTCAGCTTTTTG)
level of PARG mRNA (rank among five shRNA constructs) (PARG mRNA): lowest
degradation of PAR following exposure to TMZ [8]: greatly decreased the degradation of PAR
